Source: publication PMC9404711 (Antibiotics, 2022)
Values after ≈ are worked out from the molar mass of the structure shown. Like-named read-outs stand apart in the source and are kept apart here. Positions of bridges follow the written chain, without caps; N, C: chain ends. Non-standard residues stand in square brackets, D forms with d. Residues, ends and D or L forms follow the SMILES beside them. *: point of attachment. X1 = CC[C@H](C)CCCCC(=O)*; Dab = NCC[C@H](N)C(=O)O; Butyryl = CCCC(=O)*

Tests used:
[1] = tested on: A. baumannii (ATCC 19606); type: cell-based, Acinetobacter baumannii
Experimental: (§1) The following bacteria were grown in cation-adjusted Muller-Hinton broth at 37 °C with shaking: A. baumannii (ATCC 19606), E. coli (ATCC 25922), K. pneumoniae (ATCC 13883), P. aeruginosa (ATCC 27853), and S. aureus (ATCC 29213).
(§2) The MIC experiments were performed in triplicate, as described in Jensen et al.. Briefly, all peptide stock solutions were prepared by dissolving each peptide in Milli-Q water to obtain a concentration of 10 mg/mL. A bacterial concentration of 10^6 CFU/mL was obtained through the dilution of an overnight culture (MHB-II medium). When the overnight culture was prepared, the OD was measured using a spectrophotometer and when an OD value between 0.2 and 0.4 was obtained, the culture was diluted to OD = 0.002. The MIC determination was carried out in 96-well polypropylene microtitre plates. […] A final bacterial inoculum of 5 × 10^5 CFU/mL per well was obtained by adding 50 μL bacterial suspension to the microtiter plates. The plates were incubated at 37 °C for 18–24 h. To verify the CFU, 10 μL of bacteria suspension was transferred to 990 μL 0.9 % saline solution, from which a 10-fold dilution was carried out. Then, 100 μL of the dilution was plated on an LB plate and left for bacterial growth overnight at 37 °C. Colistin and vancomycin were used as the positive controls.

[2] = tested on: P. aeruginosa (ATCC 27853); type: cell-based, Pseudomonas aeruginosa
Experimental: as §1, §2

[3] = tested on: K. pneumoniae (ATCC 13883); type: cell-based, Klebsiella pneumoniae
Experimental: as §1, §2

E. coli (ATCC 25922) = type: cell-based, Escherichia coli
Experimental: as §1, §2

S. aureus (ATCC 29213) = assay: MIC determination, broth microdilution; type: cell-based, Staphylococcus aureus; settings: for MIC SA: S. aureus ATCC 29213, MHB-II, 37 °C, 18–24 h, triplicate
Experimental: as §1, §2

human erythrocytes = settings: 150 μM peptide; 0.5% (v/v) red blood cell suspension in PBS, 1 h at 37 °C, absorbance 414 nm; melittin positive control, PBS negative control; three wells
Experimental: PBS served as the negative control and 5 μM melittin served as the positive control. All melittin solutions were prepared in Protein LoBind Eppendorf tubes to prevent the adsorption of melittin to the inner surface of the tubes.
Preparation of peptide solutions and melittin: A 5 μM melittin solution in PBS was prepared the day before the hemolysis experiment. First, 150 μL of this solution was transferred to each of the positive control wells and stored in the fume hood to coat the wells. On the day of the experiment, the melittin solution was discarded and the wells were washed with 3 × PBS. A 2.5 μM melittin solution in PBS was prepared and 75 μL was transferred to the wells. PBS (150 μL) was used as the negative control. A solution of each peptide was prepared by dissolving the peptide in 0.5 mL PBS to obtain a concentration of 300 μM. Each peptide solution (150 μL) was transferred to the wells in three wells each in row A, and the plate was diluted down.
Preparation of the red blood cell suspension: 1 mL of type O- whole blood in citrate was transferred to a cryotube. The whole blood was washed with 3 × PBS; adding 3, 3, and 4 mL of PBS, respectively. In between, the blood was centrifuged for 8 min (3000, 3000, and 4000 rpm, respectively) and the supernatant was removed after each centrifugation. A 0.5% (v/v) blood suspension was prepared by adding 40 μL of the washed blood cells to 8 mL of PBS. Then, 75 μL of the red blood cell suspension was transferred to each well and mixed gently. The plate was sealed and incubated for 1 h at 37 °C. After incubation, the plate was centrifuged at 4000 rpm for 10 min. Afterwards, 60 μL of the supernatant from each well was quickly transferred to an ELISA plate.
The absorbance was determined at 414 nm, and Equation (1) below was used to calculate the hemolytic activity of the peptides.

[4] = Hydrophobicity by analytical RP-HPLC (%B at elution); type: physicochemical; settings: chromatographic, analytical reversed-phase HPLC, Waters Symmetry C18 5 μm 4.6 × 250 mm; A: H2O + 0.1% TFA, B: 90:10 ACN-H2O + 0.1% TFA
Experimental: Peptide purity was determined as described previously by analytical RP-HPLC using a Waters 717 plus Autosampler, In-line Degasser AF, 600 Controller, and 2996 Photodiode Array Detector; the column used was a Waters Symmetry C18 column (5 μm, 4.6 mm × 250 mm, Milford, MA, USA). An aqueous acetonitrile (ACN) gradient with 0.1% TFA added (mixing eluent A: H2O + 0.1% TFA and eluent B: 90:10 ACN-H2O + 0.1% TFA) was employed using milli-Q water. Preparative RP-HPLC was performed by using a Waters XSelect Peptide CSH C18 OBDTM column (5 μm, 19 mm × 250 mm, Milford, MA, USA) with the same eluents as for analytical HPLC.
*Hydrophobicity as indicated by the percentage of mobile phase B (%B) at the peak elution time on analytical

[5] = A. baumannii ATCC 19606, MHB-II, inoculum 5 × 10^5 CFU/mL, 37 °C, 18–24 h, triplicate
[6] = P. aeruginosa ATCC 27853, MHB-II, inoculum 5 × 10^5 CFU/mL, 37 °C, 18–24 h, triplicate
[7] = K. pneumoniae ATCC 13883, MHB-II, inoculum 5 × 10^5 CFU/mL, 37 °C, 18–24 h, triplicate
[8] = E. coli ATCC 25922, MHB-II, inoculum 5 × 10^5 CFU/mL, 37 °C, 18–24 h, triplicate
[9] = value in brackets, A. baumannii ATCC 19606, MHB-II, 37 °C, 18–24 h, triplicate
[10] = value in brackets, P. aeruginosa ATCC 27853, MHB-II, 37 °C, 18–24 h, triplicate
[11] = value in brackets, K. pneumoniae ATCC 13883, MHB-II, 37 °C, 18–24 h, triplicate
[12] = value in brackets, E. coli ATCC 25922, MHB-II, 37 °C, 18–24 h, triplicate

Row | SMILES | MIC AB [1, 5] [µg/mL] | MIC AB ([1]; ATCC 19606) [µM] | MIC PA ([2]; ATCC 27853) [µM] | MIC PA [2, 6] [µg/mL] | MIC KP ([3]; ATCC 13883) [µM] | MIC KP [3, 7] [µg/mL] | MIC EC (E. coli (ATCC 25922); ATCC 25922) [µM] | MIC EC (E. coli (ATCC 25922); [8]) [µg/mL] | MIC SA (S. aureus (ATCC 29213); inoculum 5 × 10^5 CFU/mL) [µg/mL] | MIC (S. aureus (ATCC 29213); Staphylococcus aureus, ATCC29213, read-out: MIC SA) [µM] | MIC AB [1, 9] [µM] | MIC PA [2, 10] [µM] | % hemolysis of human erythrocytes (human erythrocytes) [%] | MIC KP [3, 11] [µM] | MIC EC (E. coli (ATCC 25922); [12]) [µM] | MIC SA (S. aureus (ATCC 29213); value in brackets) [µM] | %B (hydrophobicity: percentage of mobile phase B at the peak elution time) [4] [%B]
1 | CC[C@H](C)CCCCC(=O)N[C@@H](CCN)C(=O)N[C@H](C(=O)N[C@@H](CCN)C(=O)N[C@H]1CCNC(=O)[C@H]([C@@H](C)O)NC(=O)[C@H](CCN)NC(=O)[C@H](CCN)NC(=O)[C@H](CC(C)C)NC(=O)[C@@H](CC(C)C)NC(=O)[C@H](CCN)NC1=O)[C@@H](C)O [Colistin, reference compound] (X1-[Dab]T[Dab][Dab][Dab][dL]L[Dab][Dab]T; lactam 4-C (inferred); N-terminus assumed) | 0.25 | 0.2 | 0.4 | 0.5 | 0.4 | 0.5 | 0.2 | 0.25 |  |  |  |  |  |  |  |  | 
2 | CN[C@H](CC(C)C)C(=O)N[C@H]1C(=O)N[C@@H](CC(N)=O)C(=O)N[C@H]2C(=O)N[C@H]3C(=O)N[C@H](C(=O)N[C@H](C(=O)O)c4cc(O)cc(O)c4-c4cc3ccc4O)[C@H](O)c3ccc(c(Cl)c3)Oc3cc2cc(c3O[C@@H]2O[C@H](CO)[C@@H](O)[C@H](O)[C@H]2O[C@H]2C[C@](C)(N)[C@H](O)[C@H](C)O2)Oc2ccc(cc2Cl)[C@H]1O [Vancomycin, reference compound] |  |  |  |  |  |  |  |  | 0.5 | 0.35 (≈ 0.507 µg/mL) |  |  |  |  |  |  | 
3 | CCCC(=O)N[C@H](CCCCN)C(=O)N[C@H](CCCCN)C(=O)N[C@H](CC(C)C)C(=O)N[C@H](Cc1ccccc1)C(=O)N[C@H](CCCCN)C(=O)N[C@H](CCCCN)C(=O)N[C@@H](C(=O)N[C@H](CC(C)C)C(=O)N[C@H](CCCNC(=N)N)C(=O)N[C@H](Cc1ccc(O)cc1)C(=O)N[C@H](CC(C)C)C(N)=O)[C@H](C)CC [compound 1] (Butyryl-[dK][dK][dL][dF][dK][dK][dI][dL][dR][dY][dL]-NH2) | 2 |  |  | 32 |  | 4 |  | 2 | 64 |  | 1.3 | 21.1 | 100 | 2.6 | 1.3 | 42.1 | 
4 | CCCCCCCCCCCC(=O)N[C@H](CCCCN)C(=O)N[C@H](CCCCN)C(=O)N[C@H](CC(C)C)C(=O)N[C@H](Cc1ccccc1)C(=O)N[C@H](CCCCN)C(=O)N[C@H](CCCCN)C(=O)N[C@@H](C(=O)N[C@H](CC(C)C)C(=O)N1CCCC[C@H](C(N)=O)NC(=O)[C@@H](Cc2ccc(O)cc2)NC(=O)[C@@H](CCCNC(=N)N)NC(=O)C1)[C@H](C)CC [compound 11] | 4 |  |  | 4 |  | 8 |  | 4 | 4 |  | 2.3 | 2.3 |  | 4.6 | 2.3 | 2.3 | 66.2
5 | CCCCCCCCCCCCCC(=O)N[C@H](CCCCN)C(=O)N[C@H](CCCCN)C(=O)N[C@H](CC(C)C)C(=O)N[C@H](Cc1ccccc1)C(=O)N[C@H](CCCCN)C(=O)N[C@H](CCCCN)C(=O)N[C@@H](C(=O)N[C@H](CC(C)C)C(=O)N1CCCC[C@H](C(N)=O)NC(=O)[C@@H](Cc2ccc(O)cc2)NC(=O)[C@@H](CCCNC(=N)N)NC(=O)C1)[C@H](C)CC [compound 12] | 16 |  |  | 16 |  | 4 |  | 8 | 8 |  | 9.3 | 9.3 |  | 2.3 | 4.6 | 4.6 | 70.0
6 | CCCCCCCCCCCC(=O)N[C@H](CCCCN)C(=O)N[C@H](CCCCN)C(=O)N[C@H](CC(C)C)C(=O)N[C@H](Cc1ccccc1)C(=O)N[C@H](CCCCN)C(=O)N[C@H](CCCCN)C(=O)N[C@@H](C(=O)N1CCCC[C@H](C(N)=O)NC(=O)[C@@H](Cc2ccc(O)cc2)NC(=O)[C@@H](CCCNC(=N)N)NC(=O)[C@@H](CC(C)C)NC(=O)C1)[C@H](C)CC [compound 14] | 4 |  |  | 4 |  | 16 |  | 4 | 4 |  | 2.4 | 2.4 |  | 9.5 | 2.4 | 2.4 | 65.1
7 | CCCCCCCCCCCC(=O)N[C@H](CCCCN)C(=O)N[C@H](CCCCN)C(=O)N[C@H](CC(C)C)C(=O)N[C@H](Cc1ccccc1)C(=O)N[C@H](CCCCN)C(=O)N[C@H](CCCCN)C(=O)N1CCCC[C@H](C(N)=O)NC(=O)[C@@H](Cc2ccc(O)cc2)NC(=O)[C@@H](CCCNC(=N)N)NC(=O)[C@@H](CC(C)C)NC(=O)[C@@H]([C@H](C)CC)NC(=O)C1 [compound 17] | 4 |  |  | 8 |  |  |  | 8 | 4 |  | 2.4 | 4.8 |  |  | 4.7 | 2.4 | 65.5
8 | CCCCCCCCCCCCCC(=O)N[C@H](CCCCN)C(=O)N[C@H](CCCCN)C(=O)N[C@H](CC(C)C)C(=O)N[C@H](Cc1ccccc1)C(=O)N[C@H](CCCCN)C(=O)N[C@H](CCCCN)C(=O)N1CCCC[C@H](C(N)=O)NC(=O)[C@@H](Cc2ccc(O)cc2)NC(=O)[C@@H](CCCNC(=N)N)NC(=O)[C@@H](CC(C)C)NC(=O)[C@@H]([C@H](C)CC)NC(=O)C1 [compound 18] | 4 |  |  | 16 |  | 32 |  | 8 | 4 |  | 2.3 | 9.3 |  | 18.7 | 4.6 | 2.3 | 78.5
